From patent US20250011288A1 (BRISTOL-MYERS SQUIBB COMPANY, priority 2021, published 2025)

Molecular target: T1, human RXFP1 (Homo sapiens, UniProt Q9HBX9)
T1 construct: expressed in transfected cells
T1 sequence (Q9HBX9 1-757): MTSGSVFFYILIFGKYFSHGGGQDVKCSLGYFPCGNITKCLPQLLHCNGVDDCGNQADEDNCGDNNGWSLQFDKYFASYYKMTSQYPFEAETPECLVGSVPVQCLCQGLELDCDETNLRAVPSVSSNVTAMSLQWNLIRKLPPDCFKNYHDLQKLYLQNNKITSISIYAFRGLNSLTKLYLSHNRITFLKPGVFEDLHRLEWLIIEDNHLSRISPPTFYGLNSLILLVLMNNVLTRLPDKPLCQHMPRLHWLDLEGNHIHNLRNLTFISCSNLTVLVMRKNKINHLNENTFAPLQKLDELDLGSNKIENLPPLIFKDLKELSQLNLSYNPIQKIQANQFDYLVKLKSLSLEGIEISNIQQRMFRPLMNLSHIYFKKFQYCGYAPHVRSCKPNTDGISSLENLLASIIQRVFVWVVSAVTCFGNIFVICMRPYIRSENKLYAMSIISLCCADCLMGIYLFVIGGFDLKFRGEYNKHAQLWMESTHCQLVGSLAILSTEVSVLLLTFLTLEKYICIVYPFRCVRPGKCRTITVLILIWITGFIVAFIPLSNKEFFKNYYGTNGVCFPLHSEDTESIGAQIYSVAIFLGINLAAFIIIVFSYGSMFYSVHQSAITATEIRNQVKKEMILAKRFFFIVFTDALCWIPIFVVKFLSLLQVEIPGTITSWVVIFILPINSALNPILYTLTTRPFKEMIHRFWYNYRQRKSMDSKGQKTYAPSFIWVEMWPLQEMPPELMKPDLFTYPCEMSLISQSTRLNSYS
Experiment: human RXFP1 (hRXFP1) HEK293 cAMP assay (HTRF)
Type: cell-based
Settings: HEK293 cells stably expressing human RXFP1, 30 min at room temperature
Procedure: RXFP1 Cyclic Adenosine Monophosphate (cAMP) Assays. […] Cells were dissociated and suspended in assay buffer. The assay buffer was HBSS buffer (with calcium and magnesium) containing 20 mM HEPES, 0.05% BSA, and 0.5 mM IBMX. Cells (3000 cells per well, except 1500 cell per well for HEK293 cells stably expressing human RXFP1) were added to 384-well Proxiplates (Perkin-Elmer). Cells were immediately treated with test compounds in DMSO (2% final) at final concentrations in the range of 0.010 nM to 50 µM. Cells were incubated for 30 min at room temperature. The level of intracellular cAMP was determined using the HTRF HiRange cAMP assay reagent kit (Cisbio) according to manufacturer's instructions. Solutions of cryptate conjugated anti-cAMP and d2 fluorophore-labelled cAMP were made in a supplied lysis buffer separately. Upon completion of the reaction, the cells were lysed with equal volume of the d2-cAMP solution and anti-cAMP solution. […] The potency and activity of a compound to […] cAMP production was then determined by fitting to a 4-parametric logistic equation from a plot of cAMP level versus compound concentrations.

Row | EC50 [nM] | SMILES
1 | 2900 | COc1cccc2cc(C(=O)N[C@@H]3C4CCC(/C4=C/C(F)(F)F)[C@@H]3C(=O)Nc3ccc(F)c(C(F)(F)F)c3)cnc12 (stereo partly drawn) [Example 14, N-[(2R,3S,7Z)-3-{[4-fluoro-3-(trifluoromethyl)phenyl]carbamoyl}-7-(2,2,2-trifluoroethylidene)bicyclo[2.2.1]heptan-2-yl]-8-methoxyquinoline-3-carboxamide]
2 | 3500 | Cn1c(=O)c(C(=O)N[C@@H]2C3CCC(/C3=C/C(F)(F)F)[C@@H]2C(=O)Nc2ccc(F)c(C(F)(F)F)c2)cc2ccccc21 (stereo partly drawn) [Example 15, N-[(2R,3S,7Z)-3-{[4-fluoro-3-(trifluoromethyl)phenyl]carbamoyl}-7-(2.2,2-trifluoroethylidene)bicyclo[2. 2.1]heptan-2-yl]-1-methyl-2-oxo-1,2-dihydroquinoline-3-carboxamide]
3 | 3800 | O=C(N[C@@H]1C2CCC(/C2=C/C(F)(F)F)[C@@H]1C(=O)Nc1ccc(F)c(C(F)(F)F)c1)c1cc(=O)c2ccccc2o1 (stereo partly drawn) [Example 16, N-[(2R,3S,7Z)-3-{[4-fluoro-3-(trifluoromethyl)phenyl]carbamoyl}-7-(2,2,2-trifluoroethylidene)bicyclo[2. 2.1]heptan-2-yl]-4-oxo-4H-chromene-2-carboxamide]
4 | 4500 | O=C(N[C@@H]1C2CCC(/C2=C/C(F)(F)F)[C@@H]1C(=O)Nc1ccc(F)c(C(F)(F)F)c1)c1cnc2ccc(Cl)cc2c1 (stereo partly drawn) [Example 17, 6-chloro-N-[(2R,3S,7Z)-3-{[4-fluoro-3-(trifluoromethyl)phenyl]carbamoyl}-7-(2,2,2-trifluoroethylidene)bicyclo[2.2.1]heptan-2-yl]quinoline-3-carboxamide]
5 | 2100 | Cn1cc(Br)cc(C(=O)N[C@@H]2C3CCC(/C3=C/C3CC3)[C@@H]2C(=O)Nc2ccc(F)c(C(F)(F)F)c2)c1=O (stereo partly drawn) [Example 18, 5-bromo-N-[(2R,3S,7Z)-7-(cyclopropyl-methylidene)-3-{[4-fluoro-3-(trifluoromethyl)phenyl]carbamoyl}bicyclo [2.2.1]heptan-2-yl]-1-methyl-2-oxo-1,2-dihydropyridino-3-carboxamide]
6 | 4000 | Cn1c(=O)c(C(=O)N[C@@H]2C3CCC(/C3=C/C3CC3)[C@@H]2C(=O)Nc2ccc(F)c(C(F)(F)F)c2)cc2ccccc21 (stereo partly shown) [Example 19]
7 | 250 | COc1ncc(-c2ccc(C(=O)O)cc2)cc1C(=O)N[C@@H]1C2CCC(C2=C(C)C)[C@@H]1C(=O)Nc1ccc(F)c(C(F)(F)F)c1 (stereo partly drawn) [Example 20, 4-(5-{[(2R,3S)-3-{[4-fluoro-3-(trifluoromethyl)phenyl]carbamoyl}-7-(propan-2-ylidene)bicyclo[2.2.1]heptan-2-yl]carbamoyl}-6-methoxypyridin-3-yl)benzoic acid]
8 | 80 | COc1ncc(-c2cc(C(=O)O)ccc2F)cc1C(=O)N[C@@H]1C2CCC(C2=C(C)C)[C@@H]1C(=O)Nc1ccc(F)c(C(F)(F)F)c1 (stereo partly drawn) [Example 21, 4-fluoro-3-(5-{[(2R,3S)-3-{[4-fluoro-3-(trifluoromethyl)phenyl]carbamoyl}-7-(propan-2-ylidene)bicyclo[2.2.1]heptan-2-yl]carbamoyl}-6-methoxypyridin-3-yl)benzoic acid]
9 | 1700 | COc1ccc(-c2ccc(C(=O)O)cc2)nc1C(=O)N[C@@H]1C2CCC(C2=C(C)C)[C@@H]1C(=O)Nc1ccc(F)c(C(F)(F)F)c1 (stereo partly drawn) [Example 22, 4-(6-{[(2R,3S)-3-{[4-fluoro-3-(trifluoromethyl)phenyl]carbamoyl}-7-(propan-2-ylidene)bicyclo [2.2.1]heptan-2-yl]carbamoyl}-5-methoxypyridin-2-yl)benzoic acid]
10 | 2400 | COc1ccc(-c2cc(C(=O)O)ccc2F)nc1C(=O)N[C@@H]1C2CCC(C2=C(C)C)[C@@H]1C(=O)Nc1ccc(F)c(C(F)(F)F)c1 (stereo partly drawn) [Example 23, 4-Fluoro-3-(6-{[(2R,3S)-3-{[4-fluoro-3-(trifluoromethyl)phenyl]carbamoyl}-7-(propan-2-ylidene)bicyclo [2.2.1]heptan-2-yl]carbamoyl}-5-methoxypyridin-2-yl)benzoic acid]
11 | 1000 | COc1ncc(-c2cc(C(=O)O)ccc2F)nc1C(=O)N[C@@H]1C2CCC(C2=C(C)C)[C@@H]1C(=O)Nc1ccc(F)c(C(F)(F)F)c1 (stereo partly drawn) [Example 24, 4-Fluoro-3-(6-{[(2R,3S)-3-{[4-fluoro-3-(trifluoromethyl)phenyl]carbamoyl}-7-(propan-2-ylidene)bicyclo [2.2.1]heptan-2-yl]carbamoyl}-5-methoxypyrazin-2-yl)benzoic acid]
12 | 33 | COc1ncc(-c2cc(C(=O)O)ccc2F)cc1C(=O)N[C@@H]1C2CCC(/C2=C/c2ccccc2)[C@@H]1C(=O)Nc1ccc(F)c(C(F)(F)F)c1 (stereo partly drawn) [Example 25, 4-Fluoro-3-(5-{[(2R,3S,7Z)-3-{[4-fluoro-3-(trifluoromethyl)phenyl]carbamoyl}-7-(phenylmethylidene)bicyclo[2.2.1]heptan-2-yl]carbamoyl}-6-methoxypyridin-3-yl)benzoic acid]
13 | 76 | COc1ncc(-c2cc(C(=O)O)ccc2F)nc1C(=O)N[C@H]1[C@@H](C(=O)Nc2ccc(F)c(C(F)(F)F)c2)[C@H]2CC[C@@H]1/C2=C\c1cnoc1 [Example 26, 4-fluoro-3-(6-(((1R,2R,3S,4R,Z)-3-((4-fluoro-3-(trifluoromethyl)phenyl)carbamoyl)-7-(isoxazol-4-ylmethylene)bicyclo[2.2.1]heptan-2-yl)carbamoyl)-5-methoxypyrazin-2-yl)benzoic acid]
14 | 290 | COc1ccc(-c2cc(C(=O)O)ccc2F)nc1C(=O)N[C@@H]1C2CCC(/C2=C/c2cnoc2)[C@@H]1C(=O)Nc1ccc(F)c(C(F)(F)F)c1 (stereo partly drawn) [Example 27, 4-Fluoro-3-(6-{[(2R,3S,7Z)-3-{[4-fluoro-3-(trifluoromethyl)phenyl]carbamoyl}-7-[(1,2-oxazol-4-yl)methylidene]bicyclo[2.2.1]heptan-2-yl]carbamoyl}-5-methoxypyridin-2-yl)benzoic acid]
15 | 34 | COc1ncc(-c2cc(C(=O)O)ccc2F)cc1C(=O)N[C@@H]1C2CCC(/C2=C/C(F)(F)F)[C@@H]1C(=O)Nc1ccc(F)c(C(F)(F)F)c1 (stereo partly drawn) [Example 28, 4-Fluoro-3-(5-{[(2R,3S,7Z)-3-{[4-fluoro-3-(trifluoromethyl)phenyl]carbamoyl}-7-(2,2,2-trifluoroethylidene)bicyclo[2. 2.1]heptan-2-yl]carbamoyl}-6-methoxypyridin-3-yl)benzoic acid]
16 | 136 | COc1ncc(-c2cccc(C(=O)O)c2)cc1C(=O)N[C@@H]1C2CCC(/C2=C/C(F)(F)F)[C@@H]1C(=O)Nc1ccc(F)c(C(F)(F)F)c1 (stereo partly drawn) [Example 29, 3-(5-{[(2R,3S,7Z)-3-{[4-fluoro-3-(trifluoromethyl)phenyl]carbamoyl}-7-(2,2,2-trifluoroethylidene)bicyclo[2.2.1]heptan-2-yl]carbamoyl}-6-methoxypyridin-3-yl)benzoic acid]
17 | 109 | COc1cnc(-c2cc(C(=O)O)ccc2F)cc1C(=O)N[C@@H]1C2CCC(/C2=C/C(F)(F)F)[C@@H]1C(=O)Nc1ccc(F)c(C(F)(F)F)c1 (stereo partly drawn) [Example 30, 4-Fluoro-3-(4-{[(2R,3S,7Z)-3-{[4-fluoro-3-(trifluoromethyl)phenyl]carbamoyl}-7-(2,2,2-trifluorocthylidene)bicyclo[2. 2.1]heptan-2-yl]carbamoyl}-5-methoxypyridin-2-yl)benzoic acid]
18 | 162 | COc1cnc(-c2cccc(C(=O)O)c2)cc1C(=O)N[C@@H]1C2CCC(/C2=C/C(F)(F)F)[C@@H]1C(=O)Nc1ccc(F)c(C(F)(F)F)c1 (stereo partly drawn) [Example 31, 3-(4-{[(2R,3S,7Z)-3-{[4-fluoro-3-(trifluoromethyl)phenyl]carbamoyl}-7-(2,2,2-trifluoroethylidene)bicyclo[2.2.1]heptan-2-yl]carbamoyl}-5-methoxypyridin-2-yl)benzoic acid]
19 | 166 | COc1cnc(-c2cc(C(=O)O)ccc2F)nc1C(=O)N[C@@H]1C2CCC(/C2=C/C(F)(F)F)[C@@H]1C(=O)Nc1ccc(F)c(C(F)(F)F)c1 (stereo partly drawn) [Example 32, 4-Fluoro-3-(4-{[(2R,3S,7Z)-3-{[4-fluoro-3-(trifluoromethyl)phenyl]carbamoyl}-7-(2,2,2-trifluoroethylidene)bicyclo[2. 2.1]heptan-2-yl]carbamoyl}-5-methoxypyrimidin-2-yl)benzoic acid]
